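Tested at 5 concentrations; 48 h exposure; 96-well plates; endpoints linearly interpolated, else capped at highest concentration. TGI is the concentration that stops growth completely.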 Where a SMILES comes first, the peptide text is derived from it. The star is where a group is joined. Boc = CC(C)(C)OC(=O)*
Key:
Test in all cases: NCI-60 cell line screen, 48 h
[1] = tested on: PC-3 prostate
[2] = tested on: NCI-H522 lung
[3] = tested on: NCI-H23 lung
[4] = tested on: U251 CNS
[5] = tested on: COLO 205 colon
[6] = tested on: HCT-15 colon
[7] = tested on: ACHN renal
[8] = tested on: NCI/ADR-RES ovarian
[9] = tested on: OVCAR-3 ovarian
[10] = tested on: SF-539 CNS
[11] = tested on: HCC-2998 colon
[12] = tested on: KM12 colon
[13] = tested on: HL-60(TB) leukemia

CCCC[P+](CCCC)(CCCC)C(C(=O)OC)C(C(=O)OC)=C1SC(C(=O)OC)=C(C(=O)OC)S1 (centres undefined)
TGI [1]: > 100 µM | TGI [2]: > 100 µM | TGI [3]: > 100 µM | TGI [4]: > 100 µM | TGI [5]: > 100 µM | TGI [6]: > 100 µM | TGI [7]: > 100 µM | TGI [8]: > 100 µM | TGI [9]: > 100 µM

CCCCn1c(C)c(C)c2c1NN=C(C#N)S2(=O)=O
TGI [1]: > 100 µM | TGI [2]: > 100 µM | TGI [3]: > 100 µM | TGI [4]: > 100 µM | TGI [10]: > 100 µM | TGI [11]: > 100 µM | TGI [5]: > 100 µM | TGI [6]: > 100 µM | TGI [7]: > 100 µM | TGI [12]: > 100 µM | TGI [8]: > 100 µM | TGI [9]: > 100 µM

COc1ccccc1-c1n[nH]c(-c2ccccc2O)n1
TGI [1]: > 100 µM | TGI [3]: > 100 µM | TGI [4]: > 100 µM | TGI [10]: > 100 µM | TGI [11]: > 100 µM | TGI [5]: > 100 µM | TGI [6]: > 100 µM | TGI [7]: > 100 µM | TGI [13]: > 100 µM | TGI [12]: > 100 µM | TGI [8]: > 100 µM | TGI [9]: > 100 µM

COc1ccc(-c2cc(-c3ccccc3)c3c(n2)-c2ccccc2NC(=O)C3)cc1
TGI [1]: > 100 µM | TGI [3]: > 100 µM | TGI [4]: > 100 µM | TGI [10]: > 100 µM | TGI [11]: > 100 µM | TGI [5]: > 100 µM | TGI [6]: > 100 µM | TGI [7]: > 100 µM | TGI [13]: > 100 µM | TGI [12]: > 100 µM | TGI [8]: > 100 µM | TGI [9]: > 100 µM

O=c1[nH]nc(Cc2ccccc2)n1N=C1CCCCC1
TGI [1]: > 100 µM | TGI [2]: > 100 µM | TGI [3]: > 100 µM | TGI [4]: > 100 µM | TGI [5]: > 100 µM | TGI [6]: > 100 µM | TGI [7]: > 100 µM | TGI [13]: > 100 µM | TGI [12]: > 100 µM | TGI [8]: > 100 µM | TGI [9]: > 100 µM

Brc1nc2c3ccccc3ncn2c1Br
TGI [2]: 53.6 µM | TGI [3]: 56.1 µM | TGI [4]: > 100 µM | TGI [10]: > 100 µM | TGI [11]: > 100 µM | TGI [5]: 29.8 µM | TGI [6]: > 100 µM | TGI [7]: 50.9 µM | TGI [13]: > 100 µM | TGI [12]: > 100 µM | TGI [9]: 22.5 µM

CCOC(=O)/C(=C\NC[C@@H](C)O)c1nc2ccccc2[nH]1
TGI [2]: > 100 µM | TGI [3]: > 100 µM | TGI [10]: > 100 µM | TGI [11]: > 100 µM | TGI [5]: > 100 µM | TGI [6]: > 100 µM | TGI [7]: 90.4 µM | TGI [13]: 90.4 µM | TGI [12]: > 100 µM | TGI [8]: > 100 µM | TGI [9]: > 100 µM

CC(C)(C)c1ccc(Oc2ccc(C#N)c(C#N)c2)c(C(C)(C)C)c1
TGI [2]: 60.6 µM | TGI [3]: > 100 µM | TGI [4]: > 100 µM | TGI [10]: > 100 µM | TGI [11]: > 100 µM | TGI [5]: > 59.1 µM | TGI [6]: 31.3 µM | TGI [7]: > 100 µM | TGI [13]: 32.3 µM | TGI [12]: > 100 µM | TGI [9]: > 100 µM

CCOC(=O)c1nc2cc(F)c(F)cc2nc1NCc1cc(OC)c(OC)c(OC)c1
TGI [1]: > 100 µM | TGI [2]: > 100 µM | TGI [3]: > 100 µM | TGI [4]: > 100 µM | TGI [10]: > 100 µM | TGI [5]: > 100 µM | TGI [6]: > 100 µM | TGI [7]: > 100 µM | TGI [13]: > 100 µM | TGI [12]: > 100 µM | TGI [8]: > 100 µM | TGI [9]: > 100 µM

COC(=O)CC[N+]1([O-])CC1
TGI [3]: > 100 µM | TGI [4]: > 100 µM | TGI [10]: > 100 µM | TGI [11]: > 100 µM | TGI [5]: > 100 µM | TGI [6]: > 100 µM | TGI [7]: > 100 µM | TGI [13]: > 100 µM | TGI [12]: > 100 µM | TGI [8]: > 100 µM

Clc1ccccc1-c1nn2c(CCCCCCCCc3nnc4sc(-c5ccccc5Cl)nn34)nnc2s1
TGI [1]: > 100 µM | TGI [2]: > 100 µM | TGI [3]: > 100 µM | TGI [4]: > 100 µM | TGI [10]: > 100 µM | TGI [11]: > 100 µM | TGI [5]: > 100 µM | TGI [6]: > 100 µM | TGI [7]: > 100 µM | TGI [12]: > 100 µM | TGI [8]: > 100 µM | TGI [9]: > 100 µM

CC12CC(=O)OC(Cc3ccccc31)O2 (centres undefined)
TGI [2]: > 100 µM | TGI [3]: > 100 µM | TGI [4]: > 100 µM | TGI [10]: > 100 µM | TGI [11]: > 100 µM | TGI [5]: > 100 µM | TGI [7]: > 100 µM | TGI [13]: > 100 µM | TGI [12]: > 100 µM | TGI [9]: > 100 µM

COc1nc(N)nc2c1n(C)c[n+]2C
TGI [1]: > 100 µM | TGI [2]: > 100 µM | TGI [3]: > 100 µM | TGI [4]: > 100 µM | TGI [10]: > 100 µM | TGI [5]: > 100 µM | TGI [6]: > 100 µM | TGI [7]: > 100 µM | TGI [13]: > 100 µM | TGI [12]: > 100 µM | TGI [8]: > 100 µM | TGI [9]: > 100 µM

c1ccc2nc3c(nc2c1)sc1nc2ccccc2n13
TGI [1]: > 100 µM | TGI [3]: > 100 µM | TGI [4]: > 100 µM | TGI [10]: > 100 µM | TGI [11]: > 100 µM | TGI [5]: > 100 µM | TGI [6]: > 100 µM | TGI [7]: > 100 µM | TGI [13]: > 100 µM | TGI [12]: > 100 µM | TGI [8]: > 100 µM | TGI [9]: > 100 µM

COc1ccc2c(c1)nc1n2C(c2c(F)cccc2F)SC1 (centres undefined)
TGI [1]: > 100 µM | TGI [3]: > 100 µM | TGI [4]: > 100 µM | TGI [10]: > 100 µM | TGI [11]: > 100 µM | TGI [5]: > 100 µM | TGI [6]: > 100 µM | TGI [7]: > 100 µM | TGI [13]: > 100 µM | TGI [12]: > 100 µM | TGI [8]: > 100 µM | TGI [9]: > 100 µM

COC(=O)C(Cc1c[nH]c2ccccc12)NC(=O)C(Cc1c[nH]c2ccccc12)NC(=O)C(Cc1c[nH]c2ccccc12)NC(=O)C(Cc1c[nH]c2ccccc12)NC(=O)C(Cc1c[nH]c2ccccc12)NC(=O)OC(C)(C)C (centres undefined) (Boc-WWWWW-OMe; configuration not given here)
TGI [1]: > 100 µM | TGI [2]: > 100 µM | TGI [3]: > 100 µM | TGI [4]: > 100 µM | TGI [11]: > 100 µM | TGI [6]: > 100 µM | TGI [7]: > 100 µM | TGI [13]: 81.6 µM | TGI [9]: > 100 µM

N#CC12CCC(O)C(CC1)C2=O (centres undefined)
TGI [2]: > 100 µM | TGI [3]: > 100 µM | TGI [4]: > 100 µM | TGI [10]: > 100 µM | TGI [11]: > 100 µM | TGI [5]: > 100 µM | TGI [6]: > 100 µM | TGI [7]: > 100 µM | TGI [13]: > 100 µM | TGI [12]: > 100 µM | TGI [9]: > 100 µM

C=C[C@@]1(C)CC(=O)[C@]2(O)[C@@]3(C)[C@@H](OC(C)=O)CCC(C)(C)[C@@H]3[C@H](O)[C@H](OC(C)=O)[C@@]2(C)O1
TGI [1]: > 100 µM | TGI [3]: > 100 µM | TGI [4]: > 100 µM | TGI [10]: > 100 µM | TGI [11]: > 100 µM | TGI [6]: > 100 µM | TGI [7]: > 100 µM | TGI [12]: > 100 µM | TGI [8]: > 100 µM | TGI [9]: > 100 µM

O=C1c2scc(-c3ccc(F)cc3)c2-n2cccc21
TGI [1]: > 100 µM | TGI [2]: > 100 µM | TGI [4]: 51.9 µM | TGI [11]: 91.1 µM | TGI [5]: > 100 µM | TGI [6]: > 100 µM | TGI [7]: > 100 µM | TGI [12]: > 100 µM | TGI [8]: > 100 µM | TGI [9]: > 100 µM
